For one assay, the system named is kmt2d morphants. The assay is described as follows: Brain cell proliferation (pHH3 immunostaining) in kmt2d morphants. The class given is in vivo, zebrafish. The note with it: 100 nM, 2 dpf, listed as dmDf. An excerpt:
(§1) Intellectual disability represents a major phenotype in KS, with some studies reporting almost 90% of patients to be affected (see, Wessels, M. W., et al. Clin Dysmorphol 11, 95-102 (2002)). […] Previous studies have shown that defects in proliferation in the developing zebrafish brain can be a proxy for neurodevelopmental and neurocognitive traits, especially in the context of microcephaly (see, Borck, G. et al. Genome Res 25, 609 (2015); Brooks, S. S. et al. Genetics 198, 723-33 (2014); O'Rawe, J. A. et al. Am J Hum Genet 97, 922-32 (2015); Wortmann, S. B. et al. Am J Hum Genet 96, 245-57 (2015)), a phenotype reported commonly in KS (see, Matsumoto, N. & Niikawa, N. Am J Med Genet C Semin Med Genet 117C, 57-65 (2003)).
(§2) For convergence and extension (CE) phenotyping, embryos were scored as described (see, Leitch, C. C. et al. Nat Genet 40, 443-8 (2008)) at the 8-10 somite stage, and images were captured using an AZ100 microscope and NIS Elements software (Nikon). […] The distance between Meckel's (MK) and ceratohyal (CH) cartilages was measured on ventral bright field images with Image J (NIH). […] Fluorescence signal on embryo heads was imaged with the Nikon AZ100 microscope and DS-Qi1MC digital camera using […] Z-stacks to generate extended depth of focus images. Cell numbers were quantified using the ImageJ ICTN plugin (NIH). […]

The subject of a further assay is rap1-CRISPR embryos. The assay is described as follows: Brain cell proliferation (pHH3 immunostaining) in rap1-mosaic mutants. It is filed as in vivo, zebrafish. Conditions: 100 nM, 2 dpf, listed as dmDf.
Description: as §1, §2

The next assay relates to kmt2d-CRISPR embryos. The assay is described as follows: Brain cell proliferation (pHH3 immunostaining) in kmt2d-mosaic mutants. Conditions: 100 nM, 2 dpf, listed as dmDf. It is filed as in vivo, zebrafish.
Description: as §1, §2

In assay [1] the test system is kmt2d+/−×kmt2d+/− progeny. The assay is described as follows: Brain cell proliferation in stable kmt2d mutant intercross progeny. The class given is in vivo, zebrafish. The note with it: 100 mM dmDf, 2 dpf.
Description: (§3) FIG. 12: Treatment with dmDf rescues the defects of stable kmt2d mutant. kmt2d+/− adults were in-crossed and the embryos were then collected at 1 dpf, 2 dpf and 5 dpf to assess dmDf efficacy. […] Error bars show SEM (standard error of the mean).
(§4) Although the small molecule testing data in CRISPR F0 mosaic models are consistent with morphant phenotypes (and rescue), experiments recognized the necessity of testing the potential efficacy of dmDf in a stable genetic model that is a better genotypic proxy to human patients. […] In addition to examining proliferation of cells in the brain, experiments assessed whether neural differentiation is affected (see, Van Laarhoven, P. M. et al. Hum Mol Genet 24, 4443-53 (2015)).
as §2

Assay [2] concerns rap1- and kdm6a-depleted zebrafish. The assay is described as follows: CE defects caused by loss of rap1 and kdm6a. The class given is in vivo. On the procedure: FIG. 4: Compound 8 ameliorates the CE and jaw defects caused by loss of rap/and kdm6a. (a) gRNA targeting both zebrafish rap1a and rap1b were injected into embryos at the 1-cell stage with Cas9 protein. Larvae were incubated with compound 8 (100 nM) at the 8-cell stage and scored for micrognathia. 5 dpf larvae were stained with Alcian blue to assess the layout of the jaw cartilage. In comparison to control embryos (top), rap1-CRISPR embryos have smaller jaws. […] (b) Quantitative measurement of the distance between MK and CH cartilages. (c) Larvae were scored for CE (n>30 for each concentration). (d) 5 dpf embryos were stained with Alcian blue to assess the layout of jaw cartilage. […] (e) Quantitative measurement of the distance between MK and CH cartilages. *p<0.05; ***p<0.001. […]
as §2

For assay [3], the system named is kmt2d+/−×kmt2d+/− progeny. The assay is described as follows: Jaw defect in stable kmt2d mutant intercross progeny. Conditions: 100 mM dmDf, 5 dpf. It is filed as in vivo, zebrafish.
Description: as §3, §4, §2

Entries after “also recorded” stand apart in the source; their conditions may differ.

For `CC(C)c1nc(-c2cccc(NS(=O)(=O)c3c(F)cccc3F)c2F)c(-c2ccnc(N)n2)s1` [Compound 8, desmethyl-Dabrafenib], the “total number of proliferating (pHH3+) cells in brain” value is “significantly increases pHH3+ proliferating cells; also recorded: restored the total number of proliferating cells to wild type levels” in the assay on kmt2d morphants, “can be rescued; also recorded: restored the total number of proliferating cells to wild type levels” in the assay with rap1-CRISPR embryos and “can be rescued; also recorded: restored the total number of proliferating cells to wild type levels” in the assay on kmt2d-CRISPR embryos. In addition, the “number of proliferating cells in the brain” value in assay [1] was “increases significantly; also recorded: rescued”. In addition, the CE defects result in assay [2] was “ameliorates”. Also, in assay [3], the “mandibular length / jaw defect” value is listed as “rescues significantly; also recorded: rescue of the mandibular length”.

(Values after patent US20210196714A1, “COMPOSITIONS AND METHODS FOR TREATING DISORDERS CHARACTERIZED WITH ABERRANT RAS/MAPK SIGNALING” (Duke University, priority 2018, published 2021).)
